Tests used:
dendritic cells = assay: 48 hr response of wild-type and Caspase-1−/− mice to topical FITC+DBP (flow cytometry of draining lymph node); assay type: in vivo; conditions: vs wild-type
Description: We also tested the relevance of a second dendritic cell activation system that intersects with TLR, the NALP inflammasome (reviewed in Franchi, L. et al. 2009 “The inflammasome: a Caspase-1-activation platform that regulates immune responses and disease pathogenesis” Nature Immunology 10:241-247).
Mice were treated topically on the shaved abdominal skin with FITC dissolved in acetone (5 mg/ml) combined with an equal volume of DBP. Two days later, the skin draining inguinal lymph node cells were stained for immunofluorescent flow cytometry using monoclonal antibodies specific for CD19, CD11c, CD40, I-Ab, CD80, and CD86 obtained from BD Pharmingen, and detected using a Becton Dickenson FACSCalibur followed by analysis of the data using FlowJo software.

skin [1] = conditions: in vivo
skin [2] = assay: Skin histology after multiple topical applications of DBP; conditions: multiple topical doses
tumor = tested on: tumor; design: species or system mice; conditions: mouse, in vivo
OVA = assay: Antibody response to endotoxin-free OVA injected intradermally followed by topical DBP; assay type: in vivo, B6 mice; conditions: endotoxin-free OVA i.d. followed by topical DBP
Excerpt: The cutaneous lymphoid stress response bears a strong resemblance to the effects of topical DBP. DBP is required for the induction of contact hypersensitivity to FITC in mice, a form of allergic response. Topical DBP induces the migration of Langerhans cells from the epidermis to draining lymph nodes. And, topical DBP acts as an adjuvant for antigens injected into the skin, including endotoxin-free OVA. One might expect, therefore, that topical DBP would cause the same effects as tape stripping or occlusive skin patch immunization. To our surprise, none of the effects that characterize the DETC-dependent cutaneous lymphoid stress-surveillance response are found in the response to DBP.

[3] = tested on: Murine Skin Dendritic Cells; assay: Activation of murine skin dendritic cells by DBP vs. DBlT (DC per lymph node, CD86); assay type: in vivo; conditions: topical treatment

## CCCCOC(=O)c1ccccc1C(=O)OCCCC [DBP, dibutylphthalate]
Dendritic cells
  dendritic cell response in Casp−/− mice: undiminished
Skin [1]
  histologic evidence of contact hypersensitivity: no histologic evidence of contact hypersensitivity
Skin [2]
  histologic evidence of inflammation in the skin: no histologic evidence of inflammation
tumor
  tumor-specific immunity: Protective and therapeutic tumor-specific immunity were induced
OVA
  antigen-specific IgE: undetectable
  antigen-specific IgG1 antibodies: significantly elevated
  antigen-specific IgG2b antibodies: significantly elevated
  antigen-specific IgG2c antibodies: significantly elevated
[3]
  MFI CD86: 618 (95)

— US20150307938A1, “METHOD TO IDENTIFY A NOVEL CLASS OF IMMUNOLOGIC ADJUVANTS” (Lancell, L.L.C., priority 2011, published 2015)
